Source: US4196205A, “3-Acetoxymethyl-7-(iminoacetamido)-cephalosporanic acid derivatives” (priority 1976, dated 1980)
≈ marks a conversion by molar mass, not a printed value. Where two headings read alike, the source gives them in different places.

Legend:
[1] = test system: Streptococcus faecalis 5 432; test: MIC, dilution in liquid medium; assay type: cell-based
Procedure: (§1) The method used was a dilution of a liquid medium where a series of tubes received the same quantity of a sterile nutritive media and increasing doses of the test compounds were placed therein. Then each tube was seeded with a bacterial strain and was incubated for 24 to 48 hours at 37° C. in an oven. The increasing inhibition was determined by transillumination to determine the minimum inhibiting concentration (MIC in […]) and the results are reported in the following Tables.

[2] = test system: Proteus mirabilis (indol-) A 235; test: MIC, dilution in liquid medium; assay type: cell-based; settings: Proteus mirabilis
Procedure: as §1

[3] = test system: Salmonella typhimurium 420; test: MIC, dilution in liquid medium; assay type: cell-based; settings: for MIC: Salmonella enterica, TYPHIMURIUM
Procedure: as §1

[4] = test system: Escherichia Coli Resistant Gentamicine, Tobramycine R 55 123 D; test: MIC, dilution in liquid medium; assay type: cell-based; settings: Escherichia coli
Procedure: as §1

[5] = test system: Escherichia Coli Exp. TO26 B6; test: MIC, dilution in liquid medium; assay type: cell-based; settings: for MIC: Escherichia coli
Procedure: as §1

[6] = test system: Staphylococcus aureus ATCC 5 638 Pen-Sensible = UC 1061; test: MIC, dilution in liquid medium; assay type: cell-based
Procedure: as §1

[7] = test system: Klebsiella pneumoniae Exp. 52 145; test: MIC, dilution in liquid medium; assay type: cell-based; settings: Klebsiella pneumoniae
Procedure: as §1

[8] = test system: Bacillus subtilis ATCC 6 633; test: MIC, dilution in liquid medium; assay type: cell-based; settings: for MIC: Bacillus subtilis
Procedure: as §1

[9] = test system: Klebsiella pneumoniae 2 536 Resistant Gentamicine; test: MIC, dilution in liquid medium; assay type: cell-based; settings: Klebsiella pneumoniae
Procedure: as §1

[10] = test system: Staphylococcus aureus exp. n° 54 146; test: MIC, dilution in liquid medium; assay type: cell-based; settings: Staphylococcus aureus
Procedure: as §1

[11] = test system: Proteus vulgaris (indol+) A 232; test: MIC, dilution in liquid medium; assay type: cell-based; settings: for MIC: Proteus vulgaris
Procedure: as §1

[12] = test system: Escherichia Coli Sensible Tetracycline ATCC 9 637 = 1020; test: MIC, dilution in liquid medium; assay type: cell-based; settings: for MIC: Escherichia coli
Procedure: as §1

[13] = test system: Streptococcus faecalis 99 F 74; test: MIC, dilution in liquid medium; assay type: cell-based; settings: Enterococcus faecalis
Procedure: as §1

[14] = test system: Staphylococcus aureus UC 1 128 Pen-Resistant; test: MIC, dilution in liquid medium; assay type: cell-based; settings: for MIC: Staphylococcus aureus
Procedure: as §1

Providencia Du 48 = test: MIC, dilution in liquid medium; assay type: cell-based; settings: Providencia
Procedure: as §1

[15] = test system: Streptococcus pyogenes A 561; test: MIC, dilution in liquid medium; assay type: cell-based; settings: Streptococcus pyogenes
Procedure: as §1

[16] = test system: Pseudomonas 3 935 Exp. SG; test: MIC, dilution in liquid medium; assay type: cell-based; settings: for MIC: Pseudomonas, 3935EXP.SG
Procedure: as §1

[17] = test system: Serratia Resistant Gentamicine 2 532; test: MIC, dilution in liquid medium; assay type: cell-based
Procedure: as §1

[18] = test system: Escherichia Coli Resistant Tetracycline ATCC 11 303 = UC 1261; test: MIC, dilution in liquid medium; assay type: cell-based; settings: Escherichia coli
Procedure: as §1

Proteus Mirabilis A 235 = test: Experimental infection of Proteus Mirabilis in mice; assay type: in vivo
Procedure: Groups of 10 mice with an average weight of 22 g received intraperitoneally 0.5 ml of a 24 hour old culture in oxoid bouillon of Proteus Mirabilis A 235 diluted 1/4 with distilled water. The mice then received subcutaneously the compound of Examples 11 or 15 one hour and 5 and 24 hours after the infection and the results are reported in the following Table.

[19] = Enterococcus faecalis, 5432, 48 h, 48 H

Compound CO/N=C(/C(=O)NC1C(=O)N2C(C(=O)O)=C(COC(C)=O)CSC12)c1csc(N)n1 (stereo not drawn) [Product A, anti isomer of 3-acetoxymethyl-7-[2-(2-amino-4-thiazolyl)-2-methoxyimino-acetamido]-ceph-3-eme-4-carboxylic acid] has an MIC ([1]; Enterococcus faecalis, 5432, 24 h, 24 H) of over 40 µg/mL, an MIC [1, 19] of over 40 µg/mL and an MIC ([2]; 24 h) of 2 µg/mL (≈ 4.39 µM). The MIC ([2]; 48 h) was 2 µg/mL (≈ 4.39 µM), the MIC ([3]; 24 h) was 20 µg/mL (≈ 43.9 µM) and the MIC ([4]; 24 h, read-out: M.I.C.) was 10 µg/mL (≈ 22 µM). The MIC ([4]; 48 h, read-out: M.I.C.) was 10 µg/mL (≈ 22 µM), the MIC ([5]; 24 h) was 5 µg/mL (≈ 11 µM) and the MIC ([5]; 48 h) was 5 µg/mL (≈ 11 µM). It also gave an MIC ([6]; 24 h) of 40 µg/mL (≈ 87.8 µM), an MIC ([6]; 48 h) of 40 µg/mL (≈ 87.8 µM) and an MIC ([7]; EXP.52145, 24 h, 24 H) of 1 µg/mL (≈ 2.2 µM). For the same compound, the MIC ([7]; EXP.52145, 48 h, 48 H) was 1 µg/mL (≈ 2.2 µM), the MIC ([8]; ATCC6, 24 h, 24 H) was 20 µg/mL (≈ 43.9 µM) and the MIC ([8]; ATCC6, 48 h, 48 H) was 20 µg/mL (≈ 43.9 µM). The MIC ([9]; 24 h) was over 40 µg/mL, the MIC ([9]; 48 h) was over 40 µg/mL and the MIC ([10]; 24 h) was 40 µg/mL (≈ 87.8 µM). It also gave an MIC ([10]; 48 h) of 40 µg/mL (≈ 87.8 µM), an MIC ([11]; 24 h) of over 40 µg/mL and an MIC ([11]; 48 h) of over 40 µg/mL. For the same compound, the MIC ([12]; ATCC9, 24 h, 24 H) was 20 µg/mL (≈ 43.9 µM), the MIC ([12]; ATCC9, 48 h, 48 H) was 40 µg/mL (≈ 87.8 µM) and the MIC ([13]; 99F74, 24 h, 24 H) was over 40 µg/mL. It also gave an MIC ([13]; 99F74, 48 h, 48 H) of over 40 µg/mL, an MIC ([14]; UC1, 24 h, 24 H) of over 40 µg/mL and an MIC ([14]; UC1, 48 h, 48 H) of over 40 µg/mL. For the same compound, the MIC (Providencia Du 48; DU48, 24 h, 24 H) was 40 µg/mL (≈ 87.8 µM), the MIC (Providencia Du 48; DU48, 48 h, 48 H) was over 40 µg/mL and the MIC ([15]; A561, 24 h) was 0.4 µg/mL (≈ 0.878 µM). For the same compound, the MIC ([15]; A561, 48 h) was 0.4 µg/mL (≈ 0.878 µM), the MIC ([16]; 24 h) was over 40 µg/mL and the MIC ([16]; 48 h) was over 40 µg/mL. It also gave an MIC ([17]; 24 h) of over 40 µg/mL, an MIC ([17]; 48 h) of over 40 µg/mL and an MIC ([18]; 24 h) of 2 µg/mL (≈ 4.39 µM). For the same compound, the MIC ([18]; 48 h) was 2 µg/mL (≈ 4.39 µM).

CCO/N=C(\C(=O)N[C@@H]1C(=O)N2C(C(=O)O)=C(COC(C)=O)CS[C@H]12)c1csc(N)n1 [Example 11, 3-acetoxymethyl-7-[2-(2-amino-4-thiazolyl)-2-ethoxyiminoacetamido]-ceph-3-eme-4-carboxylic acid] gave an MIC [1, 19] of 40 µg/mL (≈ 85.2 µM), an MIC ([1]; Enterococcus faecalis, 5432, 48 h, read-out: M.I.C.) of 10 µg/mL (≈ 21.3 µM) and an MIC ([2]; 24 h, read-out: M.I.C.) of 0.5 µg/mL (≈ 1.06 µM). The MIC ([2]; 48 h, read-out: M.I.C.) was 0.5 µg/mL (≈ 1.06 µM), the M.I.C. ([3]; 24 H) was 2 µg/mL and the M.I.C. ([3]; 48 H) was 2 µg/mL. The MIC ([3]; 24 h) was 1 µg/mL (≈ 2.13 µM), the MIC ([3]; 48 h) was 1 µg/mL (≈ 2.13 µM) and the MIC ([4]; 24 h) was 1 µg/mL (≈ 2.13 µM). It also gave an MIC ([4]; 24 h, read-out: M.I.C.) of 0.6 µg/mL (≈ 1.28 µM), an MIC ([4]; 48 h) of 1 µg/mL (≈ 2.13 µM) and an MIC ([4]; 48 h, read-out: M.I.C.) of 0.6 µg/mL (≈ 1.28 µM). For the same compound, the M.I.C. ([5]; 24 H) was 0.4 µg/mL, the M.I.C. ([5]; 48 H) was 0.4 µg/mL and the MIC ([6]; 24 h) was 2 µg/mL (≈ 4.26 µM). For the same compound, the MIC ([7]; EXP.52145, 24 h, 24 H, read-out: M.I.C.) was 0.2 µg/mL (≈ 0.426 µM), the MIC ([7]; EXP.52145, 48 h, 48 H, read-out: M.I.C.) was 0.2 µg/mL (≈ 0.426 µM) and the M.I.C. ([8]; 24 H) was 0,5 μg/ml. For the same compound, the MIC ([8]; ATCC6, 24 h, 24 H, read-out: M.I.C.) was 0.4 µg/mL (≈ 0.852 µM), the MIC ([8]; ATCC6, 48 h, 48 H, read-out: M.I.C.) was 0.4 µg/mL (≈ 0.852 µM) and the MIC ([9]; 24 h) was 2 µg/mL (≈ 4.26 µM). For the same compound, the MIC ([9]; 24 h, read-out: M.I.C.) was 10 µg/mL (≈ 21.3 µM), the MIC ([9]; 48 h) was 2 µg/mL (≈ 4.26 µM) and the MIC ([9]; 48 h, read-out: M.I.C.) was 10 µg/mL (≈ 21.3 µM). It also gave an MIC ([10]; 24 h) of 2 µg/mL (≈ 4.26 µM), a M.I.C. ([11]; 48 H) of 1 µg/mL and an MIC ([11]; 24 h, read-out: M.I.C.) of 0.5 µg/mL (≈ 1.06 µM). For the same compound, the MIC ([11]; 48 h) was 2 µg/mL (≈ 4.26 µM), the M.I.C. ([12]; 24 H) was 2 µg/mL and the M.I.C. ([12]; 48 H) was 2 µg/mL. It also gave an MIC ([12]; ATCC9, 24 h, 24 H) of 1 µg/mL (≈ 2.13 µM), an MIC ([12]; ATCC9, 48 h, 48 H) of 1 µg/mL (≈ 2.13 µM) and an MIC ([13]; 99F74, 48 h, 48 H) of 20 µg/mL (≈ 42.6 µM). For the same compound, the M.I.C. ([14]; 24 H) was 3 µg/mL, the M.I.C. ([14]; 48 H) was 5 µg/mL and the MIC ([14]; UC1, 24 h, 24 H) was 2 µg/mL (≈ 4.26 µM). For the same compound, the MIC ([14]; UC1, 48 h, 48 H) was 3 µg/mL (≈ 6.39 µM), the MIC (Providencia Du 48; DU48, 24 h, 24 H) was 5 µg/mL (≈ 10.6 µM) and the MIC (Providencia Du 48; DU48, 48 h, 48 H) was 5 µg/mL (≈ 10.6 µM). For the same compound, the MIC ([15]; A561, 24 h, 24 H, read-out: M.I.C.) was 0.02 µg/mL (≈ 0.0426 µM), the MIC ([15]; A561, 48 h, 48 H, read-out: M.I.C.) was 0.02 µg/mL (≈ 0.0426 µM) and the M.I.C. ([16]; 24 H) was 40 µg/mL. The MIC ([16]; 24 h) was 20 µg/mL (≈ 42.6 µM), the MIC ([16]; 48 h) was 40 µg/mL (≈ 85.2 µM) and the MIC ([17]; 24 h) was 2 µg/mL (≈ 4.26 µM). For the same compound, the MIC ([18]; 24 h) was at most 0.2 µg/mL, the MIC ([18]; 24 h, read-out: M.I.C.) was 0.5 µg/mL (≈ 1.06 µM) and the “MORTALITY AFTER 21H30” value (Proteus Mirabilis A 235; 0.025 mg subcutaneously) was 3. For the same compound, the “MORTALITY AFTER 22H15” value (Proteus Mirabilis A 235; 0.025 mg subcutaneously) was 1, the “MORTALITY AFTER 24H20” value (Proteus Mirabilis A 235; 0.025 mg subcutaneously) was 1 and the “MORTALITY AFTER 28H” value (Proteus Mirabilis A 235; 0.025 mg subcutaneously) was 2. For the same compound, the “MORTALITY AFTER 46H” value (Proteus Mirabilis A 235; 0.025 mg subcutaneously) was 2, the “MORTALITY AFTER 53H” value (Proteus Mirabilis A 235; 0.025 mg subcutaneously) was 1 and the “Mice Alive on the 8th day” value (Proteus Mirabilis A 235; 0.025 mg subcutaneously) was 0/10. The “MORTALITY AFTER 22H15” value (Proteus Mirabilis A 235; 0.05 mg subcutaneously) was 1, the “MORTALITY AFTER 24H20” value (Proteus Mirabilis A 235; 0.05 mg subcutaneously) was 1 and the “MORTALITY AFTER 31H45” value (Proteus Mirabilis A 235; 0.05 mg subcutaneously) was 1. The “MORTALITY AFTER 70H” value (Proteus Mirabilis A 235; 0.05 mg subcutaneously) was 2, the “Mice Alive on the 8th day” value (Proteus Mirabilis A 235; 0.05 mg subcutaneously) was 5/10 and the “MORTALITY AFTER 28H” value (Proteus Mirabilis A 235; 0.1 mg subcutaneously) was 1. The “MORTALITY AFTER 46H” value (Proteus Mirabilis A 235; 0.1 mg subcutaneously) was 2, the “Mice Alive on the 8th day” value (Proteus Mirabilis A 235; 0.1 mg subcutaneously) was 7/10 and the “Mice Alive on the 8th day” value (Proteus Mirabilis A 235; 0.25 mg subcutaneously) was 10/10. For the same compound, the “Mice Alive on the 8th day” value (Proteus Mirabilis A 235; 0.5 mg subcutaneously) was 10/10 and the “Mice Alive on the 8th day” value (Proteus Mirabilis A 235; 1 mg subcutaneously) was 10/10.
